Measurements from patent US8592368B2, “JAK/STAT inhibitors and MAPK/ERK inhibitors for RSV infection” (University of South Florida, priority 2003, dated 2013).

Key:
[1] = system: ERK-1/2; assay: ERK-1/2 phosphorylation in RSV-infected A549 cells (immunoblot); type: cell-based, human
Description: Proteins were isolated from untreated cells (lane 1) or cells infected with RSV for 30 minutes (lanes 2-6) after pretreatment of cells for 30 minutes with heparinase (lane 3) or heparin (lane 5), or infected with virus pretreated with heparinase (lane 4) or heparin (lane 6) prior to addition to the cells. Proteins were separated by SDS-PAGE, blotted and probed with anti-phospho ERK-1/2 and then re-probed with anti-ERK-1/2.
(§1) FIGS. 8A-8D show the effects of inhibitors of phosphorylation of STAT-1α and ERK-1/2. In FIG. 8A, AG490- or PD98059-treated A549 cells were infected with RSV for 15 minutes. Total proteins were Western-blotted using specific anti-phospho antibodies to STAT-1α, ERK-1/2 or IκBα. Lane 1: mock-infected, lanes 2-4: RSV infected for 30 minutes, lane 3: cells treated with 50 μM of AG490 prior to RSV infection, lane 4: cells treated with 25 μM of PD98059 for 4 hours prior RSV infection. In FIG. 8B, the bands were quantified by densitometry and the relative intensity of phosphoSTAT-1α, phospho-ERK and phospho-IκBα with respect to uninfected control (lane 1) was determined. The experiment was repeated twice and the result of a representative experiment is shown. […] A549 cells were co-transfected with RL-TK plasmid and either the WT (pRc/CMV-STAT-1α) (lanes 3 and 4) or DN mutant (pRc/CMV-STAT-1α) (Y701F) (lanes 5 and 6) and were infected with RSV for 30 minutes after 24 hours of transfection. Total proteins were extracted and Western-blotted using antibodies to phospho-STAT-1α, phospho-ERK-1/2 and re-probed with antibodies to STAT-1α or ERK-1/2. In FIG. 8D, the bands were quantified by densitometry and the relative intensity of phospho-ERK and ERK was determined in each band. […]
Whole cell protein extracts were prepared by lysing cells in 50 mM HEPES, 150 mM NaCl, 1 mM EDTA, 1 mM EGTA, 10% glycerol, 0.5% NP-40, 0.1 mM phenylmethylsulfonyl fluoride, 2.5 μg/ml leupeptin, 0.5 mM NaF, and 0.1 mM sodium vanadate. […] The antibody reactions were detected by enhanced chemiluminescence using LUMIGLO (CELL SIGNALLING TECHNOLOGY). […]

[2] = system: STAT-1α; assay: STAT-1α phosphorylation in RSV-infected A549 cells (immunoblot); type: cell-based, human; details: for RSV-induced STAT-1α phosphorylation: A549 cells pre-incubated with AG490 (50 μM) or PD98059 for 4 hours, then RSV, densitometry of Western blot
Description: (§2) FIGS. 4A-4F that blocking STAT-1α attenuates RSV gene transcription and infection. A549 cells were treated with 50 µM AG490 for 4 hours before being exposed to supRSV for 30 minutes. Lysates were separated by SDS-PAGE and immunoblotted using antibodies to phospho-STAT-1α and STAT-1α. The total number of syncytia-forming plaques (PFU/ml) was counted 72 hours post-infection. Each value represents means SEM (N=3, *p<0.001). Cell proliferation was determined by viable cell counts. A549 cells were cotransfected with the pRL-TK plasmid and either the WT (pRc/CMV STAT-1α) (lanes 1 and 2) or DN mutant (pRc/CMV STAT-1α) (Y701F) (lanes 3 and 4) and then exposed to supRSV for 30 minutes. Lysates were separated by SDS-PAGE and immunoblotted for phospho-STAT-1α or STAT-1α. A549 cells were transfected with WT or DN-STAT-1α constructs and 24 hours later exposed to RSV for 30 minutes. RSV replication was measured by RT-PCR analysis of N protein gene expression. The percentage of infected cells was determined using immunofluorescence in cells transfected with WT or DN-STAT-1α. The values are means SEM (*p<0.001).
as §1, with “Total proteins were extracted and Western-blotted using antibodies to phospho-STAT-1α, phospho-ERK-1/2 and re-probed with antibodies to STAT-1α or ERK-1/2.” left out
Immunoblotting was carried out as previously described (Behera, A. K. et al. Biochem. Biophys. Res. Commun., 1998, 251(3): 704-709). After transfer, membranes were blocked with 5% non-fat dried milk, incubated with antibody to a specific STAT protein or to the corresponding phospho-STAT protein (NEW ENGLAND BIOLABS, Beverly, Mass.), secondary antibody conjugated to horseradish peroxidase was added, and immunocomplexes detected by enhanced chemiluminescence (NEW ENGLAND BIOLABS, Beverly, Mass.). […]

[3] = system: RSV; details: treatment of cells; Feldman et al. 1999; cited from earlier work
[4] = system: IκBα; assay: IκBα phosphorylation in RSV-infected A549 cells (immunoblot); type: cell-based, human; details: A549 cells pre-incubated with AG490 (50 μM) or PD98059 for 4 hours, then RSV
Description: FIGS. 8A-8D show the effects of inhibitors of phosphorylation of STAT-1α and ERK-1/2. In FIG. 8A, AG490- or PD98059-treated A549 cells were infected with RSV for 15 minutes. Total proteins were Western-blotted using specific anti-phospho antibodies to STAT-1α, ERK-1/2 or IκBα. Lane 1: mock-infected, lanes 2-4: RSV infected for 30 minutes, lane 3: cells treated with 50 μM of AG490 prior to RSV infection, lane 4: cells treated with 25 μM of PD98059 for 4 hours prior RSV infection. In FIG. 8B, the bands were quantified by densitometry and the relative intensity of phosphoSTAT-1α, phospho-ERK and phospho-IκBα with respect to uninfected control (lane 1) was determined. The experiment was repeated twice and the result of a representative experiment is shown. […] In FIG. 8D, the bands were quantified by densitometry and the relative intensity of phospho-ERK and ERK was determined in each band. […]
Whole cell protein extracts were prepared by lysing cells in 50 mM HEPES, 150 mM NaCl, 1 mM EDTA, 1 mM EGTA, 10% glycerol, 0.5% NP-40, 0.1 mM phenylmethylsulfonyl fluoride, 2.5 μg/ml leupeptin, 0.5 mM NaF, and 0.1 mM sodium vanadate. […] The antibody reactions were detected by enhanced chemiluminescence using LUMIGLO (CELL SIGNALLING TECHNOLOGY).

[5] = system: RSV; assay: Immunofluorescence count of RSV-infected A549 cells; type: cell-based, respiratory syncytial virus; details: A549 cells treated with PD98059, 24 hours of RSV infection, vs control
Description: as §2, with “The values are means SEM (*p<0.001).” left out
In FIG. 9A, PD98059- or DMSO-treated A549 cells were infected with RSV. […] The RSV titers were determined using a HEP-2 cell-based plaque assay as described. […] Twenty-four hours after transfection, A549 cells were infected with RSV for 90 minutes and 24 hours after the % of infected cells was determined with FITC-RSV antibody. […]

[6] = system: HIV-1; details: Yang and Gabuzda 1999; cited from earlier work
[7] = system: rgRSV; assay: rgRSV infection of primary NHBE cells (fluorescent images); type: cell-based, respiratory syncytial virus; details: AG490 50 μM or PD98059 80 μM 2 hours before rgRSV, images after 16 hours
Description: FIGS. 10A-10F show the effects of STAT and ERK-1/2 inhibitors on RSV infection of NHBE cells. NHBE cells were treated with either AG490 (50 μM) (FIGS. 10C and 10D) or PD98059 (80 μM) (FIGS. 10E and 10F) for 2 hours. DMSO was used as a mock control (FIGS. 10A and 10B). After inhibitor removal, cells were infected with rgRSV for 2 hours. Then, rgRSV was removed and growth medium with inhibitors was added to the cells for 16 hours before fluorescent images (DMSO, FIG. 10B; AG490, FIG. 10D; PD98059, FIG. 10F) as well as light transmission images (DMSO, FIG. 10A; AG490, FIG. 10C; PD98059, FIG. 10E) were taken.
RSV A2 strain was obtained from the American Type Culture Collection (ATCC, Rockville, Md., USA). In some experiments, rgRSV (an engineered RSV expressing enhanced green fluorescent protein) was used. A549 cell line, representing type II alveolar epithelial cells, was obtained from the ATCC. The cells were grown at 37° C. in 5% CO2 in RPMI medium, supplemented with 10% fetal bovine serum. Normal human bronchial epithelial cells (NHBE) were obtained from CAMBREX (Walkersville, Md., USA) and grown in serum-free bronchial epithelium growth medium supplemented as indicated by the manufacturer. NHBE at passage 2 and 3 was used for the experiments.
A549 cells were incubated with AG490 (50 μM) or PD98059 (80 μM) for 4 hours at 37° C. and then infected with RSV. […]

[8] = system: RSV; assay: RSV plaque assay (syncytia-forming plaques, HEp-2 cell-based); set-up: species or system respiratory syncytial virus; details: A549 cells, AG490 pretreatment, plaques counted 72 hours post-infection
Description: as §2, with “(*p<0.001). […]” for “(*p<0.001).”

[9] = system: A549 cells; type: cell-based, human
Description: as §2
To rule out the possibility that this effect on viral replication is due to diminished cell proliferation, viable cells were enumerated at 12, 24, 48, and 72 hours after treatment with inhibitors.

Row | Compound | RSV-induced activation of ERK-1/2 ([1]; A549 cells, heparin pretreatment, RSV 30 minutes) | ERK-1/2 phosphorylation induced by pretreated RSV ([1]; RSV pretreated with heparin or heparinase before addition to A549 cells) | RSV-induced activation of STAT-1 ([2]; A549 cells or RSV pretreated with heparin 1000 U/ml or heparinase 10 U/ml, RSV 30 minutes) | RSV infection [3] | IκBα phosphorylation [4] | percentage of infected cells [5] | infectivity of HIV-1 virions [6] | RSV-induced STAT-1α phosphorylation [2] | number of infected cells [7] | ERK activation (phospho-ERK-1/2) ([1]; A549 cells pre-incubated with AG490 50 μM, then RSV) | RSV infection by plaque assay (PFU/ml) [8] | cytotoxic or anti-proliferative effects (viable cell counts) [9] | phosphorylation of STAT-1α ([2]; A549 cells preincubated with AG490 for 4 hours, then supRSV 30 minutes, vs untreated controls)
1 | heparin | abolished the RSV-induced activation of ERK-1/2 | did not induce ERK-1/2 phosphorylation | abolished | blocks RSV infection |  |  |  |  |  |  |  |  | 
2 | COc1cccc(-c2cc(=O)c3ccccc3o2)c1N [PD98059] |  |  |  |  | significantly affected the phosphorylation | decrease in the percentage of infected cells | reduced the infectivity of HIV-1 virions | significantly affected the phosphorylation | significant reduction in the number of infected cells |  |  |  | 
3 | N#C/C(=C/c1ccc(O)c(O)c1)C(=O)NCc1ccccc1 [AG490] |  |  |  |  | decrease |  |  | decrease in RSV-induced STAT-1K phosphorylation | significant reduction in the number of infected cells | failed to inhibit ERK activation | significantly (p<0.001) decreased RSV infection | no cytotoxic or anti-proliferative effects | decreased phosphorylation of STAT-1α
